# According to the supplement of paper PMC9005190:
# Legend:
# HCA3 [1] = target: HCA3 (UniProt P49019); assay: pEC50 of agonist-induced pathway activation (ebBRET)
# HCA3 [2] = target: HCA3 (UniProt P49019); assay: Emax (maximal agonist-induced change in ebBRET relative to vehicle) (% of vehicle response (amplitude of change)); higher = larger response (for Gs, larger decrease in membrane ebBRET, i.e. stronger Gs activation)
# AMY3 [3] = assay: pEC50 of agonist-induced pathway activation (ebBRET)
# AMY3 [4] = assay: Emax (maximal agonist-induced change in ebBRET relative to vehicle) (% of vehicle response (amplitude of change)); higher = larger response (for Gs, larger decrease in membrane ebBRET, i.e. stronger Gs activation)
# mGluR8 = mGluR8 (UniProt O00222); assay: pEC50 of agonist-induced pathway activation (ebBRET)
# B1 [5] = target: T1, B1 (UniProt P46663); assay: as above
# T1 sequence (whole entry): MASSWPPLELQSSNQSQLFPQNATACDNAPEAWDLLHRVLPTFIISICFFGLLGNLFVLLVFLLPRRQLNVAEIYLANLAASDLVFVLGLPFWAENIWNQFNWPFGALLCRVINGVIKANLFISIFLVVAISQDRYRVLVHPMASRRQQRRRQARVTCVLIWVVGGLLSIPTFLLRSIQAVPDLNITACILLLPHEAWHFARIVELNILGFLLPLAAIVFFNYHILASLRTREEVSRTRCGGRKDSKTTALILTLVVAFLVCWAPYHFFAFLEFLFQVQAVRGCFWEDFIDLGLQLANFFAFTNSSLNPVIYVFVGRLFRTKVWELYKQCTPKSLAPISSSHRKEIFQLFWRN
# B2 [6] = target: T2, B2 (UniProt P30411); assay: as above
# T2 sequence (whole entry): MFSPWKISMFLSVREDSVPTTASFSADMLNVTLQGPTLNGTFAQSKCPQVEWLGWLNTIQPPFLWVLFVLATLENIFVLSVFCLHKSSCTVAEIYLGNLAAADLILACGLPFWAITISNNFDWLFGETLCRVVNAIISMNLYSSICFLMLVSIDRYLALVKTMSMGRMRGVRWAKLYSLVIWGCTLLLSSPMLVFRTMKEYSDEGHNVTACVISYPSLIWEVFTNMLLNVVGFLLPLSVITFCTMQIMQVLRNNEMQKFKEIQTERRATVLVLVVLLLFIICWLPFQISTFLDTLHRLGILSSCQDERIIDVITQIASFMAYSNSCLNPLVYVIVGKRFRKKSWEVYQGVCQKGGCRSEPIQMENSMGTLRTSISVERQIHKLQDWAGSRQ
# B1 [7] = target: T1, B1; assay: Emax (maximal agonist-induced change in ebBRET relative to vehicle) (% of vehicle response (amplitude of change)); higher = larger response (for Gs, larger decrease in membrane ebBRET, i.e. stronger Gs activation)
# B2 [8] = target: T2, B2; assay: as above
# GPR4 [9] = target: GPR4 (UniProt P46093); assay: pEC50 of agonist-induced pathway activation (ebBRET)
# GPR65 [10] = target: GPR65 (UniProt Q8IYL9); assay: as above
# GPR68 [11] = target: GPR68 (UniProt Q15743); assay: as above
# GPR4 [12] = target: GPR4 (UniProt P46093); assay: Emax (maximal agonist-induced change in ebBRET relative to vehicle) (% of vehicle response (amplitude of change)); higher = larger response (for Gs, larger decrease in membrane ebBRET, i.e. stronger Gs activation)
# GPR65 [13] = target: GPR65 (UniProt Q8IYL9); assay: as above
# GPR68 [14] = target: GPR68 (UniProt Q15743); assay: as above
# [15] = pathway (G protein / arrestin sensor): G13
# [16] = pathway (G protein / arrestin sensor): Gi1
# [17] = pathway (G protein / arrestin sensor): Gi2
# [18] = pathway (G protein / arrestin sensor): GoA
# [19] = pathway (G protein / arrestin sensor): GoB
# [20] = pathway (G protein / arrestin sensor): Gz
# [21] = pathway (G protein / arrestin sensor): βarr1/GRK2
# [22] = pathway (G protein / arrestin sensor): βarr2
# [23] = pathway (G protein / arrestin sensor): βarr2/GRK2
# [24] = pathway (G protein / arrestin sensor): G12
# [25] = pathway (G protein / arrestin sensor): G15
# [26] = pathway (G protein / arrestin sensor): Gs
# [27] = pathway (G protein / arrestin sensor): G11
# [28] = pathway (G protein / arrestin sensor): G14
# [29] = pathway (G protein / arrestin sensor): Gq
# Sequence of GPR65 (Q8IYL9 whole entry): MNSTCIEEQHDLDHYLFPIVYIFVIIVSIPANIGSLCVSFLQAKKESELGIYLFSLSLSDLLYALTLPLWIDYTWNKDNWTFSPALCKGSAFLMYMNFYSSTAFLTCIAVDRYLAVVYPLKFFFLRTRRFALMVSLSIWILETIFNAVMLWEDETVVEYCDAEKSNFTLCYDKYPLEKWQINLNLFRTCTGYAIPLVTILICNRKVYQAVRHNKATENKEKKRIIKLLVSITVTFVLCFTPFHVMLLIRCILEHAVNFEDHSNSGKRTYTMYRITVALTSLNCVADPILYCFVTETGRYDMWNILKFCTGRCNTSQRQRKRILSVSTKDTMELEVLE
# Sequence of mGluR8 (O00222 whole entry): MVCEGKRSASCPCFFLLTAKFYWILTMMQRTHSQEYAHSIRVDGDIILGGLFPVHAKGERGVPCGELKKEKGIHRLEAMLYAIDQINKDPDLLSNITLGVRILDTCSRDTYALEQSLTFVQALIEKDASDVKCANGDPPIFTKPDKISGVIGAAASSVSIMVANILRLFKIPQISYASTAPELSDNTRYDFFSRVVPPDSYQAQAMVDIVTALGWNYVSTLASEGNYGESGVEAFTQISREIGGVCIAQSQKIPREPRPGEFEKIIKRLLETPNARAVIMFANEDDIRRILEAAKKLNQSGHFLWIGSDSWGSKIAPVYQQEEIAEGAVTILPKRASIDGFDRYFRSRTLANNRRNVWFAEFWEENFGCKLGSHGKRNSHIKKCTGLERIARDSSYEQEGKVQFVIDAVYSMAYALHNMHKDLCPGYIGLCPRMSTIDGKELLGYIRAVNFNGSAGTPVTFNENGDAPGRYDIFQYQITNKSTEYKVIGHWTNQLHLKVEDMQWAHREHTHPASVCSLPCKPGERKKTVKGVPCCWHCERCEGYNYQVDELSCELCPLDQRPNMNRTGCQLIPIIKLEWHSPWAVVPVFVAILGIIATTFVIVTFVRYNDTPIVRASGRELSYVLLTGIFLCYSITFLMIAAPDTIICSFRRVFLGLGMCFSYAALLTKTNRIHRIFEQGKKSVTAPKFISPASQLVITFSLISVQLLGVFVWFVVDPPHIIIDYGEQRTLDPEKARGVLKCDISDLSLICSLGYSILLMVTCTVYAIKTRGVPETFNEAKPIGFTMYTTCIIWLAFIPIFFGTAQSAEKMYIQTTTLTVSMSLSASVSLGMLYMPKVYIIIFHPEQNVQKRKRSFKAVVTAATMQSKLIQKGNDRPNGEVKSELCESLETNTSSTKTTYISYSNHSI
# Sequence of GPR68 (Q15743 whole entry): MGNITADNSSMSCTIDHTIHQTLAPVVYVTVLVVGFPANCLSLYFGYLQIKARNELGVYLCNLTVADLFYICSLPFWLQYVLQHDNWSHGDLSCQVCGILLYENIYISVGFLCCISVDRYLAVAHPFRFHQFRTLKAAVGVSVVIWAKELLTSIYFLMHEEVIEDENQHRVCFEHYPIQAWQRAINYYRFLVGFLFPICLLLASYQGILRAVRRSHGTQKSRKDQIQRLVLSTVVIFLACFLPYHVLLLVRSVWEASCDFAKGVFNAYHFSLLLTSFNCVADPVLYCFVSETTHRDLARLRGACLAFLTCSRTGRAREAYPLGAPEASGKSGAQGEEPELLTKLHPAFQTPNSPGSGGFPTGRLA
# Sequence of HCA3 (P49019 whole entry): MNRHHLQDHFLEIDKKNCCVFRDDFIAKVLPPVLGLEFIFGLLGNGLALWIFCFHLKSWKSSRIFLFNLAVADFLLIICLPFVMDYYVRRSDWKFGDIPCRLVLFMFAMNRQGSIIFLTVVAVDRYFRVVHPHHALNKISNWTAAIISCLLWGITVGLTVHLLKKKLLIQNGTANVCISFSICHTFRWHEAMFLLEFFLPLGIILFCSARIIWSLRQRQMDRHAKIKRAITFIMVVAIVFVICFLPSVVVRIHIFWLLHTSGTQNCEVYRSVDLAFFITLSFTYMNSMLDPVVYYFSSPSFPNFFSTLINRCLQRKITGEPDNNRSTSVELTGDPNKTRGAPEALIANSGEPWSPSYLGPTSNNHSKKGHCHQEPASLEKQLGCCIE
# Sequence of GPR4 (P46093 whole entry, looked up): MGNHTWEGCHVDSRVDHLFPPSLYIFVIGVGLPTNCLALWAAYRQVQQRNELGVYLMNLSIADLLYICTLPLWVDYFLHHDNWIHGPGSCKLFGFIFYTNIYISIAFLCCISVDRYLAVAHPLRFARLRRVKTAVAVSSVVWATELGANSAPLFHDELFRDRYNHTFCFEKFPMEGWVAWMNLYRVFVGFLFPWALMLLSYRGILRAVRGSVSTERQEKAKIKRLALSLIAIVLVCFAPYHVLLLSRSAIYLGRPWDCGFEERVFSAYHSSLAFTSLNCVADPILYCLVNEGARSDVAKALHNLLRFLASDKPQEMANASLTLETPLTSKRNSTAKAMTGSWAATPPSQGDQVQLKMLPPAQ
compound,measurement,setting,value
CCCCCC(O)CC(=O)O (stereo not drawn) [3-HOA],pEC50,HCA3 [1]; [15],4.08
same,pEC50,HCA3 [1]; [16],5.63
same,pEC50,HCA3 [1]; [17],5.71
same,pEC50,HCA3 [1]; [18],5.5
same,pEC50,HCA3 [1]; [19],5.45
same,pEC50,HCA3 [1]; [20],5.25
same,pEC50,HCA3 [1]; [21],3.49
same,pEC50,HCA3 [1]; [22],3.52
same,pEC50,HCA3 [1]; [23],3.47
same,Emax,HCA3 [2]; [15],97.9
same,Emax,HCA3 [2]; [16],415
same,Emax,HCA3 [2]; [17],190
same,Emax,HCA3 [2]; [18],187
same,Emax,HCA3 [2]; [19],317
same,Emax,HCA3 [2]; [20],178
same,Emax,HCA3 [2]; [21],605
same,Emax,HCA3 [2]; [22],115
same,Emax,HCA3 [2]; [23],487
CC[C@H](C)[C@H](NC(=O)[C@H](C)NC(=O)CNC(=O)[C@H](Cc1ccccc1)NC(=O)[C@H](CC(N)=O)NC(=O)[C@H](CC(N)=O)NC(=O)[C@H](CO)NC(=O)[C@H](CO)NC(=O)[C@H](Cc1cnc[nH]1)NC(=O)[C@@H](NC(=O)[C@H](CC(C)C)NC(=O)[C@H](Cc1ccccc1)NC(=O)[C@H](CC(N)=O)NC(=O)[C@H](C)NC(=O)[C@H](CC(C)C)NC(=O)[C@H](CCCNC(=N)N)NC(=O)[C@H](CCC(N)=O)NC(=O)[C@@H](NC(=O)[C@H](C)NC(=O)[C@@H]1CSSC[C@H](NC(=O)[C@@H](N)CCCCN)C(=O)N[C@@H](CC(N)=O)C(=O)N[C@@H]([C@@H](C)O)C(=O)N[C@@H](C)C(=O)N[C@@H]([C@@H](C)O)C(=O)N1)[C@@H](C)O)C(C)C)C(=O)N[C@@H](CC(C)C)C(=O)N[C@@H](CO)C(=O)N[C@@H](CO)C(=O)N[C@H](C(=O)N[C@@H](CC(N)=O)C(=O)N[C@H](C(=O)NCC(=O)N[C@@H](CO)C(=O)N[C@@H](CC(N)=O)C(=O)N[C@H](C(=O)N[C@@H](Cc1ccc(O)cc1)C(N)=O)[C@@H](C)O)C(C)C)[C@@H](C)O [Amylin],pEC50,AMY3 [3]; [24],8.6
same,pEC50,AMY3 [3]; [15],8.49
same,pEC50,AMY3 [3]; [25],7.22
same,pEC50,AMY3 [3]; [26],7.79
same,Emax,AMY3 [4]; [24],62.3
same,Emax,AMY3 [4]; [15],271
same,Emax,AMY3 [4]; [25],122
same,Emax,AMY3 [4]; [26],21.4
NC(CCC(=O)O)C(=O)O (stereo not drawn) [Glutamate],pEC50,mGluR8; [16],5.6
same,pEC50,mGluR8; [17],5.52
same,pEC50,mGluR8; [18],6.07
same,pEC50,mGluR8; [19],5.99
same,pEC50,mGluR8; [20],5.49
NCCCC[C@H](N)C(=O)N[C@@H](CCCN=C(N)N)C(=O)N1CCC[C@H]1C(=O)N1CCC[C@H]1C(=O)NCC(=O)N[C@@H](Cc1ccccc1)C(=O)N[C@@H](CO)C(=O)N1CCC[C@H]1C(=O)N[C@@H](Cc1ccccc1)C(=O)N[C@@H](CCCN=C(N)N)C(=O)O [Kallidin],pEC50,B1 [5]; [27],6.8
same,pEC50,B1 [5]; [28],6.88
same,pEC50,B1 [5]; [25],7.54
same,pEC50,B1 [5]; [16],6.64
same,pEC50,B1 [5]; [17],6.75
same,pEC50,B1 [5]; [18],6.7
same,pEC50,B1 [5]; [19],6.78
same,pEC50,B1 [5]; [29],6.91
same,pEC50,B1 [5]; [20],6.93
same,pEC50,B2 [6]; [27],9.54
same,pEC50,B2 [6]; [24],10.2
same,pEC50,B2 [6]; [15],9.16
same,pEC50,B2 [6]; [28],9.54
same,pEC50,B2 [6]; [25],8.75
same,pEC50,B2 [6]; [16],8.14
same,pEC50,B2 [6]; [17],7.87
same,pEC50,B2 [6]; [18],7.83
same,pEC50,B2 [6]; [19],8.14
same,pEC50,B2 [6]; [29],9.71
same,pEC50,B2 [6]; [20],8.65
same,pEC50,B2 [6]; [21],8.62
same,pEC50,B2 [6]; [22],8.54
same,pEC50,B2 [6]; [23],8.52
same,Emax,B1 [7]; [27],201
same,Emax,B1 [7]; [28],162
same,Emax,B1 [7]; [25],78.9
same,Emax,B1 [7]; [16],94.8
same,Emax,B1 [7]; [17],65.7
same,Emax,B1 [7]; [18],81.3
same,Emax,B1 [7]; [19],161
same,Emax,B1 [7]; [29],171
same,Emax,B1 [7]; [20],32.3
same,Emax,B2 [8]; [27],802
same,Emax,B2 [8]; [24],83.2
same,Emax,B2 [8]; [15],484
same,Emax,B2 [8]; [28],871
same,Emax,B2 [8]; [25],1050
same,Emax,B2 [8]; [16],478
same,Emax,B2 [8]; [17],257
same,Emax,B2 [8]; [18],149
same,Emax,B2 [8]; [19],360
same,Emax,B2 [8]; [29],576
same,Emax,B2 [8]; [20],204
same,Emax,B2 [8]; [21],1740
same,Emax,B2 [8]; [22],889
same,Emax,B2 [8]; [23],1180
Cl [pH (proton)],pEC50,GPR4 [9]; [27],6.64
same,pEC50,GPR4 [9]; [28],6.26
same,pEC50,GPR4 [9]; [25],6.59
same,pEC50,GPR4 [9]; [29],6.73
same,pEC50,GPR4 [9]; [26],7.91
same,pEC50,GPR4 [9]; [22],6.99
same,pEC50,GPR65 [10]; [15],7.9
same,pEC50,GPR65 [10]; [19],6.3
same,pEC50,GPR65 [10]; [26],7
same,pEC50,GPR65 [10]; [21],5.98
same,pEC50,GPR65 [10]; [22],6.31
same,pEC50,GPR68 [11]; [27],7.35
same,pEC50,GPR68 [11]; [24],7.71
same,pEC50,GPR68 [11]; [15],8.24
same,pEC50,GPR68 [11]; [28],7.2
same,pEC50,GPR68 [11]; [25],6.49
same,pEC50,GPR68 [11]; [16],6.56
same,pEC50,GPR68 [11]; [17],6.63
same,pEC50,GPR68 [11]; [18],7.17
same,pEC50,GPR68 [11]; [19],7.41
same,pEC50,GPR68 [11]; [29],7.4
same,pEC50,GPR68 [11]; [26],6.51
same,pEC50,GPR68 [11]; [21],6.25
same,pEC50,GPR68 [11]; [22],6
same,pEC50,GPR68 [11]; [23],6.07
same,Emax,GPR4 [12]; [27],164
same,Emax,GPR4 [12]; [28],61.3
same,Emax,GPR4 [12]; [25],111
same,Emax,GPR4 [12]; [29],152
same,Emax,GPR4 [12]; [26],44.2
same,Emax,GPR4 [12]; [21],41.4
same,Emax,GPR4 [12]; [22],173
same,Emax,GPR65 [13]; [15],117
same,Emax,GPR65 [13]; [19],86.8
same,Emax,GPR65 [13]; [26],32.3
same,Emax,GPR65 [13]; [21],57.6
same,Emax,GPR65 [13]; [22],68.8
same,Emax,GPR68 [14]; [27],849
same,Emax,GPR68 [14]; [24],63.4
same,Emax,GPR68 [14]; [15],65.6
same,Emax,GPR68 [14]; [28],871
same,Emax,GPR68 [14]; [25],446
same,Emax,GPR68 [14]; [16],582
same,Emax,GPR68 [14]; [17],454
same,Emax,GPR68 [14]; [18],296
same,Emax,GPR68 [14]; [19],428
same,Emax,GPR68 [14]; [29],749
same,Emax,GPR68 [14]; [26],44.9
same,Emax,GPR68 [14]; [21],76.2
same,Emax,GPR68 [14]; [22],103
same,Emax,GPR68 [14]; [23],147
